Reference: patent publication US20160297830A1, “NOVEL COMPOUNDS USEFUL FOR THE TREATMENT OF BACTERIAL INFECTIOUS DISEASES” (GALAPAGOS NV, priority 2013, published 2016)
Values after ≈ are worked out from the molar mass of the structure shown. Where two headings read alike, the source gives them in different places.

Experiments:
[1] = system: S. aureus Sa1 ATCC 13709; assay: microbe, parasite or virus in culture; format: cell-based; details: Staphylococcus aureus, ATCC13709, read-out: MIC Sa1
[2] = system: S. aureus Sa26 ATCC 25923; assay: Antibacterial activity assay (MIC), S. aureus Sa26; format: cell-based; details: Staphylococcus aureus
[3] = system: S. aureus Sa4 NCTC 6571; assay: Antibacterial activity assay (MIC), S. aureus Sa4; format: cell-based; details: Staphylococcus aureus, NCTC6571, read-out: MIC Sa4
[4] = system: S. aureus Sa2 clinical strain NCIMB 41953, MRSA; assay: microbe, parasite or virus in culture; format: cell-based; details: Staphylococcus aureus, read-out: MIC Sa2
[5] = system: H. influenza Hi3 ATCC 31517; assay: organism not typed; format: cell-based; details: read-out: MIC Hi3
[6] = system: H. influenza Hi10 clinical strain; assay: organism not typed; format: cell-based; details: read-out: MIC Hi10
[7] = system: H. influenza Hi47 clinical strain, Ampicillin Resistant; assay: organism not typed; format: cell-based; details: read-out: MIC Hi47
[8] = system: H. influenza Hi106 ATCC 51907; assay: organism not typed; format: cell-based; details: read-out: MIC Hi106
[9] = system: E. coli Ec1 ATCC 25922; assay: Antibacterial activity assay (MIC), E. coli Ec1; format: cell-based; details: Escherichia coli, ATCC25922, read-out: MIC Ec1
[10] = system: E. coli Ec50 efflux pump KO; assay: microbe, parasite or virus in culture; format: cell-based; details: Escherichia coli, read-out: MIC Ec50 efflux pump KO
[11] = system: E. coli Ec113 efflux pump KO; assay: microbe, parasite or virus in culture; format: cell-based; details: Escherichia coli, read-out: MIC Ec113 efflux pump KO
[12] = target: DNA Polymerase IIIα (DnaE) from Staphylococcus aureus (Staphylococcus aureus, UniProt Q6GG04); assay: biochemical
[13] = target: DNA III Polymerase E (Escherichia coli, UniProt P10443); assay: In vitro activity against DNA III Polymerase E, E. coli; format: biochemical; details: DNA polymerase III, E. coli; read-out: IC50 semiquantitative scoring, E. coli
Procedure, shortened: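 Recombinant enzyme (0.47 μg/mL diluted stock) in 20 mM Tris pH7.5, 8 mM DTT, 10 mM MgOAc, 0.05% CHAPS met compound series from 100 μM top, 1/5 steps. Activated calf thymus DNA, dNTPs and [α-33P]-dTTP substrate were added, and incubation ran 120 min at 30° C. IC50 came from filter-captured incorporated radioactivity versus controls.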

[14] = system: Methicillin Resistant S. aureus Sa2 (MRSA); assay: animal or person; format: in vivo; details: sample 24 h post infection, lung; for Active: Study 4
[15] = system: Methicillin Resistant S. aureus Sa2 (MRSA); format: in vivo; details: Groin Sa, Study 1, sample time 31 h post infection
[16] = system: Methicillin Resistant S. aureus (MRSA); assay: Neutropenic mouse thigh infection model; details: Thigh Sa
[17] = Study 3, 50 mg/kg SC BID, sample time 7 h PI
[18] = Study 5, 5 mg/kg IP BID, sample time 24 h PI
[19] = Study 5, 15 mg/kg IP BID, sample time 24 h PI
[20] = Study 5, 50 mg/kg IP BID, sample time 24 h PI
[21] = Study 5, 50 mg/kg SC BID, sample time 24 h PI
[22] = Study 5, 200 mg/kg PO BID, sample time 24 h PI
[23] = Study 6, 50 mg/kg PO BID, sample time 24 h PI
[24] = Study 6, 100 mg/kg PO BID, sample time 24 h PI

DNA Polymerase IIIα (DnaE) from Staphylococcus aureus, sequence (Q6GG04 1-1022): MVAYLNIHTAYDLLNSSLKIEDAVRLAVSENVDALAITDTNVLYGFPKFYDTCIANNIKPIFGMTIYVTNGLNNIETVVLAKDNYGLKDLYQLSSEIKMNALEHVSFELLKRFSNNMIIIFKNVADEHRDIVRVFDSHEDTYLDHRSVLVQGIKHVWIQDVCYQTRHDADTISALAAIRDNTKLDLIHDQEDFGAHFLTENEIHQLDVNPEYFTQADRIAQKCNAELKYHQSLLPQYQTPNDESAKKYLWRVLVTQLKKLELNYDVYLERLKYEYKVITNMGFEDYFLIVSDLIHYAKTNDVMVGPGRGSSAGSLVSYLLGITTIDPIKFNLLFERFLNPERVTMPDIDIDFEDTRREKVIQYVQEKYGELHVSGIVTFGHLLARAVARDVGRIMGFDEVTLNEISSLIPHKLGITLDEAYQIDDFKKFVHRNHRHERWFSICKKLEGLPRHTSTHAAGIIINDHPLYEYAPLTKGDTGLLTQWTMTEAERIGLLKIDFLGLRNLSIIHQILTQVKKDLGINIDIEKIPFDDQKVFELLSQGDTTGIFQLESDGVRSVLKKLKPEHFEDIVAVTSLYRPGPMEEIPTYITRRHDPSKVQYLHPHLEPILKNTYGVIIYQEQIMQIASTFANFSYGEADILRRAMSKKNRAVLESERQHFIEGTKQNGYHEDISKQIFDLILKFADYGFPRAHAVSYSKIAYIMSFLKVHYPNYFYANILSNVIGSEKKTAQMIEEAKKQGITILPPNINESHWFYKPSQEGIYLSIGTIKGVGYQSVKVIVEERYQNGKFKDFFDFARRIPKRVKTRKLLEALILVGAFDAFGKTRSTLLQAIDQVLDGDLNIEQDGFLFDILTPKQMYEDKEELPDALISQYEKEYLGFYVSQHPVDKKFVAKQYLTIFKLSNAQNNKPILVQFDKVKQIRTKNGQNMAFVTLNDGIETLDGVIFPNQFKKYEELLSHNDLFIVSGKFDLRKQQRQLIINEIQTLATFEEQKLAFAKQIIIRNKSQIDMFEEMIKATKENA
DNA III Polymerase E, sequence (P10443 whole entry): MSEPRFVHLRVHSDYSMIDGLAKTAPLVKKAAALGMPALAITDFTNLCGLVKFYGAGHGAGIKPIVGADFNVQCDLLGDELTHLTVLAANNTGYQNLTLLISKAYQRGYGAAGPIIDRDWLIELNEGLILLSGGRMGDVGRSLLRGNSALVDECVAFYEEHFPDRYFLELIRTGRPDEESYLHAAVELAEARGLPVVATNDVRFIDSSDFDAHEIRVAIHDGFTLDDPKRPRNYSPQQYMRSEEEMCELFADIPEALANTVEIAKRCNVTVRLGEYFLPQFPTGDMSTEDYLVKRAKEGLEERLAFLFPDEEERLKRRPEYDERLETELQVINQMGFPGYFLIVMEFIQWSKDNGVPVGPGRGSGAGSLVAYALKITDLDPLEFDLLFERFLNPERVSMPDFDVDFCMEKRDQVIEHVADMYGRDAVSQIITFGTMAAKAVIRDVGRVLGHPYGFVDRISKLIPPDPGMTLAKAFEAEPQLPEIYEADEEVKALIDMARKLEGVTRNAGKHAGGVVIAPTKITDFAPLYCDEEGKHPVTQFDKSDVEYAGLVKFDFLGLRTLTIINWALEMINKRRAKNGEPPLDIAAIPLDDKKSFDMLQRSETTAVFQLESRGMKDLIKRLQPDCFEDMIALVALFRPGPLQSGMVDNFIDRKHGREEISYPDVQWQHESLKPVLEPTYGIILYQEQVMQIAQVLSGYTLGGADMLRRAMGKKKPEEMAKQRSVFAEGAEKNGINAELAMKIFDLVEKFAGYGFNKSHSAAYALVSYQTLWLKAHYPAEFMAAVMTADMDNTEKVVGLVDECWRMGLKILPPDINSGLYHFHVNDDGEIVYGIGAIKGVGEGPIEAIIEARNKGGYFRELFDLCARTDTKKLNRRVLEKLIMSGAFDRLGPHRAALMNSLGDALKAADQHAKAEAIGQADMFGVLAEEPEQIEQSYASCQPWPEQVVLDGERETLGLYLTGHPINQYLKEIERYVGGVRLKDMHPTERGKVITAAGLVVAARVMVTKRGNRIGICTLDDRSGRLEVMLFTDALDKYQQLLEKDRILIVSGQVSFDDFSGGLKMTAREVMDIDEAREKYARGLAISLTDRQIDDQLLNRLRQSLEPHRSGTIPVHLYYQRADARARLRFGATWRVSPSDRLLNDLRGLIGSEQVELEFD

Question: Which MIC [1] does the source give for `CO[C@H]1C[C@H]2C=C[C@H]3[C@H]4O[C@]2(/C(C)=C/[C@@H](C)[C@@H]([C@@H](C)O)OC1=O)[C@@H]3[C@H](O)[C@@H](C)[C@H]4OC(=O)c1ccc[nH]1` [Nargenicin A1, reference compound] here?
Answer: The MIC was 0.125 µg/mL (≈ 0.242 µM).

Question: And the MIC ([2]; ATCC25923, read-out: MIC Sa26)?
Answer: Its MIC is 0.25 µg/mL (≈ 0.485 µM).

Question: And the MIC ([2]; ATCC25923, read-out: MIC Sa26 + 10% SH)?
Answer: The MIC was 0.5 µg/mL.

Question: And the MIC ([2]; ATCC25923, read-out: MIC Sa26 + 50% SH)?
Answer: The MIC was 0.5 µg/mL.

Question: And the MIC [3]?
Answer: Its MIC is no more than 0.06 µg/mL.

Question: What about the MIC [4] of the same molecule?
Answer: The MIC was 0.125 µg/mL (≈ 0.242 µM).

Question: What about the MIC [5] of the same molecule?
Answer: Its MIC is 64 µg/mL (≈ 124 µM).

Question: What about the MIC [6] of the same molecule?
Answer: Its MIC is 32 µg/mL (≈ 62.1 µM).

Question: What about the MIC [7] of the same molecule?
Answer: Its MIC is 64 µg/mL (≈ 124 µM).

Question: And the MIC [8]?
Answer: The MIC was 32 µg/mL (≈ 62.1 µM).

Question: What about the MIC [9] of the same molecule?
Answer: Its MIC is greater than 64 µg/mL.

Question: What about the MIC [10] of the same molecule?
Answer: The MIC was 2 µg/mL (≈ 3.88 µM).

Question: And the MIC [11]?
Answer: Its MIC is no more than 0.06 µg/mL.

Question: What about the IC50 [12] of the same molecule?
Answer: Its IC50 is 1.94 to 1940 nM.

Question: What about the IC50 [13] of the same molecule?
Answer: Its IC50 is 1.94 to 1940 nM.

Question: And the log reduction at 12.5 mg/kg ([14]; Staphylococcus aureus, MRSA, in Mus musculus, po, 24 h, read-out: Log reduction vs. untreated, Study 4, 12.5 mg/kg PO BID)?
Answer: Its log reduction at 12.5 mg/kg is 0.39.

Question: What about the log reduction at 25 mg/kg ([14]; Staphylococcus aureus, MRSA, in Mus musculus, po, 24 h, read-out: Log reduction vs. untreated, Study 4, 25 mg/kg PO BID) of the same molecule?
Answer: The log reduction at 25 mg/kg was 2.17.

Question: What about the log reduction at 50 mg/kg ([14]; Staphylococcus aureus, MRSA, in Mus musculus, po, 24 h, read-out: Log reduction vs. untreated, Study 4, 50 mg/kg PO BID) of the same molecule?
Answer: Its log reduction at 50 mg/kg is 2.57.

Question: And the Active ([14]; 12.5 mg/kg PO BID)?
Answer: Its Active is “N”.

Question: What about the Active ([14]; 25 mg/kg PO BID) of the same molecule?
Answer: Its Active is “Y”.

Question: What about the Active ([14]; 50 mg/kg PO BID) of the same molecule?
Answer: The Active was “Y”.

Question: What about the Active ([15]; 50 mg/kg IP BID) of the same molecule?
Answer: Its Active is “Y”.

Question: And the “Log reduction vs. untreated” value ([15]; 50 mg/kg IP BID)?
Answer: Its value is −3.13.

Question: And the Active ([15]; 50 mg/kg PO BID)?
Answer: Its Active is “N”.

Question: And the “Log reduction vs. untreated” value ([15]; 50 mg/kg PO BID)?
Answer: Its value is −1.11.

Question: What about the Active [16, 17] of the same molecule?
Answer: The Active was “Y”.

Question: What about the “Log reduction vs. untreated” value [16, 17] of the same molecule?
Answer: The value was −4.52.

Question: And the Active [16, 18]?
Answer: The Active was “N”.

Question: And the “Log reduction vs. untreated” value [16, 18]?
Answer: Its value is 0.28.

Question: What about the Active [16, 19] of the same molecule?
Answer: Its Active is “N”.

Question: What about the “Log reduction vs. untreated” value [16, 19] of the same molecule?
Answer: The value was −0.55.

Question: And the Active [16, 20]?
Answer: The Active was “Y”.

Question: What about the “Log reduction vs. untreated” value [16, 20] of the same molecule?
Answer: Its value is −5.40.

Question: And the Active [16, 21]?
Answer: The Active was “Y”.

Question: What about the “Log reduction vs. untreated” value [16, 21] of the same molecule?
Answer: Its value is −3.28.

Question: And the Active [16, 22]?
Answer: Its Active is “Y”.

Question: What about the “Log reduction vs. untreated” value [16, 22] of the same molecule?
Answer: Its value is −4.47.

Question: What about the Active [16, 23] of the same molecule?
Answer: Its Active is “Y”.

Question: What about the “Log reduction vs. untreated” value [16, 23] of the same molecule?
Answer: The value was −2.02.

Question: And the Active [16, 24]?
Answer: Its Active is “Y”.

Question: And the “Log reduction vs. untreated” value [16, 24]?
Answer: The value was −4.06.
